Drawing on patent US20090004261A1, “PHARMACEUTICAL COMPOSITION FOR ORAL ADMINISTRATION OF A PYRAZOLE-3-CARBOXAMIDE DERIVATIVE” (Sanofi-aventis, priority 2003, published 2009), this text covers Papp and solubility for two molecules.

In brackets after ≈: the same amount, converted by molar mass.

Data set [1] is described as follows: Membrane permeability coefficient on the CaCO2 cell model. It is filed as in vitro ADME. To be noted: human, Caco-2. How it is done: (§1) These compounds are molecules that are very sparingly soluble in water, respectively: 0.1 μg/ml and 1 μg/l at pH=6.5. Furthermore, these compounds have high membrane permeability coefficients: respectively, 78×10^−7 cm/s and 96×10^−7 cm/s on the CaCO2 cell model, as described by M. C. Gres et al. in Pharmaceutical Research, […], 15(5), 726-7333.
On the technique in general: Passage across Caco-2 layers is used to estimate intestinal permeability.

A short description of data set [2]: Solubility in water. It is filed as physicochemical. To be noted: pH=6.5. As for the experimental part:
as §1

Regarding `CCc1c(C(=O)NN2CCCCC2)nn(-c2ccc(Cl)cc2Cl)c1-c1ccc(Br)cc1` [Compound A, N-Piperidino-5-(4-bromophenyl)-1-(2,4-dichlorophenyl)-4-ethylpyrazole-3-carboxamide], the Papp (commonly the rate of passage across a membrane or cell layer, normalised by area and donor concentration) in data set [1] stood at 7.8 ×10⁻⁶ cm/s. In data set [2], the concentration in solution (solubility) came to 0.1 µg/mL (≈ 0.191 µM).

As to `Cc1c(C(=O)NN2CCCCC2)nn(-c2ccc(Cl)cc2Cl)c1-c1ccc(Cl)cc1` [Compound B, N-Piperidino-5-(4-chlorophenyl)-1-(2,4-dichlorophenyl)-4-methylpyrazole-3-carboxamide, reference compound], in data set [1], the Papp turned out to be 9.6 ×10⁻⁶ cm/s.
